According to patent US9062041B2 (Bayer Intellectual Property GmbH, priority 2011, dated 2015):

Key:
Assay type in all cases: cell-based
human PGD receptor = target: T1, human PGD receptor (Homo sapiens, UniProt Q13258); assay: cAMP antagonism test on the human prostaglandin D receptor (HTRF cAMP detection); details: selectivity towards hDP, IC50 measured by cAMP antagonism test
T1 sequence (Q13258 1-359): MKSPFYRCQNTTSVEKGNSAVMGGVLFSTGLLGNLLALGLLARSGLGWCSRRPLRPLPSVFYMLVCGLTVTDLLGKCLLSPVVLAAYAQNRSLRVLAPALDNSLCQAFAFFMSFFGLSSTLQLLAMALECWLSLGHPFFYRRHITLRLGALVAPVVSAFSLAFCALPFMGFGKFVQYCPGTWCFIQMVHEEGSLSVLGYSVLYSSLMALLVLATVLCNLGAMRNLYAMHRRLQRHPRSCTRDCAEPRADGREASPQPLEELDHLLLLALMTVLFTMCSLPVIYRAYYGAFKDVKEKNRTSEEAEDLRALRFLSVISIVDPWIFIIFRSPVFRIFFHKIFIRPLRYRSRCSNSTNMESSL
Outline: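 Cells pre-mixed with cAMP-d2 were preincubated with compound (0.8 nM–16.5 μM) for 20 min at RT, then stimulated with 3× PGD2 solution (6 nM, in PBS-IBMX) for 30 min at RT. After lysis (20 min), HTRF read at 665/620 nm; antagonism seen as rise in FRET ratio.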

[1] = target: EP4 subtype of the human PGE2 receptor (Homo sapiens, UniProt P35408); assay: cAMP antagonism test on the human EP4 receptor (HTRF cAMP detection); details: selectivity towards hEP4, IC50 measured by cAMP antagonism test
Sequence of EP4 subtype of the human PGE2 receptor (P35408 whole entry): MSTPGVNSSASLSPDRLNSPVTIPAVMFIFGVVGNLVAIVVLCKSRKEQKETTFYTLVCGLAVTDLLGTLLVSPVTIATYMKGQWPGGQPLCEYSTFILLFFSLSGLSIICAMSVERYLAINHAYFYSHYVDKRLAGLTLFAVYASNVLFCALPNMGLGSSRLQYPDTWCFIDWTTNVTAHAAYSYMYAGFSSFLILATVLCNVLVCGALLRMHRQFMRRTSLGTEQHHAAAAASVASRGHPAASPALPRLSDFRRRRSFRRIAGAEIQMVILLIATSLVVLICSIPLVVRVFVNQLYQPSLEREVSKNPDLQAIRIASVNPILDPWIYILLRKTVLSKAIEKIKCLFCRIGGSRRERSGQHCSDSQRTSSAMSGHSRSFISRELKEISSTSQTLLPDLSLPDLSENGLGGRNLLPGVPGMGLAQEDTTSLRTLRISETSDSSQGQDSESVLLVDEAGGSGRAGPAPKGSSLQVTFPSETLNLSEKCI
Outline: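 Cells expressing human EP4 preincubated 20 min at RT with compound (0.8 nM–16.5 μM), then stimulated with PGE2 (0.3 nM in 3× solution, with IBMX) 60 min at RT. After lysis, cAMP measured by HTRF competition (665/620 nm ratio); antagonism seen as rise in FRET signal.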

[2] = target: EP2 subtype of the human PGE2 receptor (Homo sapiens, UniProt P43116); assay: cAMP antagonism test on the human EP2 receptor (HTRF cAMP detection); details: hEP2 receptor, read-out: Antagonism hEP2 IC50
Sequence of EP2 subtype of the human PGE2 receptor (P43116 whole entry): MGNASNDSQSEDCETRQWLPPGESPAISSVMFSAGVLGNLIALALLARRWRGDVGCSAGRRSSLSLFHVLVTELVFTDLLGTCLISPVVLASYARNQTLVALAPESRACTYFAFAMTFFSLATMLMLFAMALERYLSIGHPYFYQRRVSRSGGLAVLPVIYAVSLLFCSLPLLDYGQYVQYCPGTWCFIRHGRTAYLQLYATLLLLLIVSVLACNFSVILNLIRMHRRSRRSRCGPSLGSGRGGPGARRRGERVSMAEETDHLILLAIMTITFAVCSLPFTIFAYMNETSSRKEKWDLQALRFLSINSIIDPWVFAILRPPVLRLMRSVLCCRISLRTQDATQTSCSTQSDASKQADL
Outline: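 Cells expressing human EP2 preincubated 20 min at RT with compound (0.8 nM–16.5 μM), then stimulated 60 min with PGE2 (3× solution 1.5 nM) in PBS-IBMX. After 20 min lysis, cAMP measured by competitive HTRF with cAMP-d2 and Eu cryptate anti-cAMP antibody (665/620 nm ratio).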

Row | Structure (SMILES) | Selectivity hEP2/hDP (human PGD receptor) | Selectivity hEP2/hEP4 [1] | IC50 [2] [nM]
1 | COCCNC(=O)c1ccc2nn(CC3CCN(C(=O)c4ccc(Oc5ccc(C(N)=O)cc5)cc4)CC3)cc2c1C [Example 30, 2-({1-[4-(4-carbamoylphenoxy)-benzoyl]piperidin-4-yl}methyl)-N-(2-methoxyethyl)-4-methyl-2H-indazol-5-carboxamide] | xxx (xxx > 100) | xxx (xxx > 100) | 64.3
2 | COCCNC(=O)c1ccc2nn(C[C@H]3CCN(C(=O)c4ccc(-c5ccc(F)cc5)cc4)C3)cc2c1C [Example 223, 2-({(S)-1-[(4′-fluorobiphenyl-4-yl)carbonyl]pyrrolidin-3-yl}methyl)-N-(2-methoxyethyl)-4-methyl-2H-indazol-5-carboxamide] | xxx (xxx > 100) | xxx (xxx > 100) | 20
3 | COCCNC(=O)c1cc2cn(CC3CN(C(=O)c4ccc(OC(F)(F)F)cc4)C3)nc2cc1C [Example 181, N-(2-methoxyethyl)-6-methyl-2-({1-[4-(trifluoromethoxy)benzoyl]azetidin-3-yl}methyl)-2H-indazol-5-carboxamide] | xxx (xxx > 100) | xxx (xxx > 100) | 35.2
4 | Cc1c(C(=O)NCCOCC(F)(F)F)ccc2nn(CC3CCN(C(=O)c4ccc(Cl)cc4)CC3)cc12 [Example 90, 2-{[1-(4-chlorobenzoyl)piperidin-4-yl]methyl}-4-methyl-N-[2-(2,2,2-trifluoro-ethoxy)ethyl]-2H-indazol-5-carboxamide] | xxx (xxx > 100) | xxx (xxx > 100) | 14.8
5 | CCc1c(C(=O)NCCOC)ccc2nn(CC3CCN(C(=O)c4ccc(Cl)cc4)CC3)cc12 [Example 212, 2-{[1-(4-chlorobenzoyl)piperidin-4-yl]methyl}-4-ethyl-N-(2-methoxyethyl)-2H-indazol-5-carboxamide] | xxx (xxx > 100) | xxx (xxx > 100) | 106
6 | COCCNC(=O)c1ccc2nn(CC3CN(C(=O)c4ccc(Cl)c(C(F)(F)F)c4)C3)cc2c1C [Example 123, 2-({1-[4-chloro-3-(trifluoromethyl)benzoyl]azetidin-3-yl}methyl)-N-(2-methoxy-ethyl)-4-methyl-2H-indazol-5-carboxamide] | xxx (xxx > 100) | xxx (xxx > 100) | 8.92
7 | Cc1c(C(=O)NCC(C)(C)C)ccc2nn(CC3CCN(C(=O)c4ccc(Cl)cc4)CC3)cc12 [Example 251, 2-{[1-(4-chlorobenzoyl)piperidin-4-yl]methyl}-N-(2,2-dimethylpropyl)-4-methyl-2H-indazol-5-carboxamide] | x (x: 1-10) | x (x: 1-10) | 3810
8 | COCCNC(=O)c1ccc2nn(CC3CCN(C(=O)c4ccc(OC5CCOCC5)cc4)CC3)cc2c1C [Example 353, N-(2-methoxyethyl)-4-methyl-2-({1-[4-(3,4,5,6-tetrahydro-2H-pyran-4-yloxy)-benzoyl]piperidin-4-yl}methyl)-2H-indazol-5-carboxamide] | xxx (xxx > 100) | xxx (xxx > 100) | 50.2
9 | Cc1c(C(=O)NCC2COCCO2)ccc2nn(CC3CCN(C(=O)c4ccc(Cl)cc4)CC3)cc12 (single isomer, unassigned) [Example 414, (R or S)-2-{[1-(4-chlorobenzoyl)piperidin-4-yl]methyl}-N-(1,4-dioxan-2-ylmethyl)-4-methyl-2H-indazol-5-carboxamide] | xx (xx: 10-100) | xx (xx: 10-100) | 223
10 | Cc1c(C(=O)NCCC#N)ccc2nn(CC3CCN(C(=O)c4ccc(Cl)cc4)CC3)cc12 [Example 400, 2-{[1-(4-chlorobenzoyl)piperidin-4-yl]methyl}-N-(2-cyanoethyl)-4-methyl-2H-indazol-5-carboxamide] | xxx (xxx > 100) | xxx (xxx > 100) | 56.1
11 | CCOc1c(C(=O)NCCOC)ccc2nn(CC3CN(C(=O)c4ccc(S(F)(F)(F)(F)F)cc4)C3)cc12 [Example 277, 4-ethoxy-N-(2-methoxyethyl)-2-({1-[4-(pentafluoro-λ^6-sulphanyl)benzoyl]-azetidin-3-yl}methyl)-2H-indazol-5-carboxamide] | xxx (xxx > 100) | xxx (xxx > 100) | 47.9
12 | COCCNC(=O)c1ccc2nn(CC3CCN(C(=O)c4ccc(OC(F)(F)F)cc4)CC3)cc2c1OC [Example 266, 4-methoxy-N-(2-methoxyethyl)-2-({1-[4-(trifluoromethoxy)benzoyl]piperidin-4-yl}methyl)-2H-indazol-5-carboxamide] | xxx (xxx > 100) | xxx (xxx > 100) | 18.9
13 | COCCNC(=O)c1ccc2nn(CC3CCN(C(=O)c4ccc(N5CCOCC5)cc4F)CC3)cc2c1C [Example 53, 2-{[1-(2-fluoro-4-morpholinobenzoyl)-piperidin-4-yl]-methyl}-N-(2-methoxyethyl)-4-methyl-2H-indazol-5-carboxamide] | xxx (xxx > 100) | xxx (xxx > 100) | 44.2
14 | COCCNC(=O)c1ccc2nn(CC3CCN(C(=O)c4ccc(-c5ccc(C(C)(C)O)cc5)cc4)CC3)cc2c1C [Example 388, 2-[(1-{[4′-(1-hydroxy-1-methylethyl)biphenyl-4-yl]carbonyl}piperidin-4-yl)-methyl]-N-(2-methoxyethyl)-4-methyl-2H-indazol-5-carboxamide] | xxx (xxx > 100) | xxx (xxx > 100) | 20.5
15 | COc1ccc2c(c1)cc(C(=O)N1CCC(Cn3cc4c(C)c(C(=O)NCC(F)(F)F)ccc4n3)CC1)n2C [Example 293, 2-({1-[(5-methoxy-1-methyl-1H-indol-2-yl)carbonyl]piperidin-4-yl}methyl)-4-methyl-N-(2,2,2-trifluoroethyl)-2H-indazol-5-carboxamide] | xxx (xxx > 100) | xxx (xxx > 100) | 28.3
16 | Cc1c(C(=O)NCC(F)(F)F)ccc2nn(CC3CN(C(=O)c4ccc(Oc5ccc(Cl)cc5)cc4)C3)cc12 [Example 165, 2-({1-[4-(4-chlorophenoxy)benzoyl]azetidin-3-yl}methyl)-4-methyl-N-(2,2,2-trifluoroethyl)-2H-indazol-5-carboxamide] | xxx (xxx > 100) | xxx (xxx > 100) | 33.4
